Measurements as given in US9717722B2, “Methods and agents for treating tyrosinase-positive albinism” (NEW YORK UNIVERSITY, priority 2013, dated 2017).

What was measured:
[1] = system: wildtype (WT) melanocytes; settings: Ni-Komatsu et al. 2008 Mol Pharmacol; cited from earlier work
[2] = system: Oca3-null (OCA3) melanocytes; assay: melanin assay in Oca3-null melanocytes; type: cell-based, murine; settings: FIG. 2; 72 hours; relative to vehicle
Method: (§1) Oca2-null cells were plated in 60 mm dishes for 24 hours followed by dosing with the indicated compounds. DMSO was used as a vehicle control (to establish the baseline for comparison). Cells were harvested after 5 days. Melanocytes were harvested in extraction buffer (50 mM Tris pH7.5, 2 mM EDTA, 150 mM NaCl) containing 1% Triton X-100 and protease inhibitors (Complete, Roche Indianapolis, Ind.) following two washes with 1× phosphate buffered saline (PBS). The lysate was centrifuged for 30 min at 13,000 rpm in a microfuge. The supernatant was removed and the protein concentration determined using a protein assay kit (BioRad, Richmond, Calif.). Three hundred μl of ethanol:ether (1:1) were added to the pellet, which was then vortexed. After incubation at room temperature for 10 min, the solvent was removed (leaving the melanin behind) and the ethanol:ether wash repeated without vortexing. The melanin was then dissolved in 2 N NaOH, 20% DMSO at 60-70° C. The optical density was determined at 490 nm. The value was normalized to protein concentration in the supernatant and expressed as a ratio of the melanin in the vehicle treated cells.
Oca3-null melanocytes were seeded in six-well plates in triplicate. After 24 hours, each cell line was treated with vehicle, chloroquine or rapamycin. Plates were incubated for 72 hours. Melanocytes were harvested and a melanin assay performed as described above.

[3] = system: Oca2-null (OCA2) melanocytes; assay: melanin assay in Oca2-null melanocytes; type: cell-based, mouse; settings: for pigmentation (melanin level) in Oca2-null melanocytes: FIG. 1, harvested after 5 days, relative to DMSO vehicle
Method: as §1
(§2) Cells were seeded in six-well plates in triplicate. After 24 hours, each cell line was treated with IBMX, forskolin or rapamycin, in addition, Oca2-null melanocytes were treated with bafilomycin. Plates were incubated for 72 hours. Melanocytes were harvested and a melanin assay performed as described above.
Oca2-null cells were plated in 60 mm dishes for 24 hours followed by dosing with the indicated compounds. DMSO was used as a vehicle control. […]
Selected compounds identified in the screen were tested using a traditional melanin assay in order to verify the findings of the screen. […] The supernatant was removed and the protein concentration determined using a protein assay kit (BioRad, Richmond, Calif.). […] The optical density was determined at 490 nm. The value was normalized to protein concentration in the supernatant and expressed as a ratio of the melanin in the untreated cells.

[4] = system: Oca2-null melanocytes; assay: toxicity to Oca2-null melanocytes; type: cell-based, mouse; settings: compared with wildtype melanocytes
[5] = system: wildtype melanocytes; assay: toxicity to wildtype melanocytes; type: cell-based; settings: even at nanomolar concentrations
[6] = system: Oca2-null cells; assay: 96-well melanin absorbance screen with MTS cell proliferation assay; type: cell-based, mouse; settings: library compounds at 5 and/or 1 μM; bafilomycin A1 as positive control
Method: The present inventors utilized the chemical genetics approach described herein to identify compounds that can be used to reverse the diminished pigmentation in Oca2-null cells. To this end, they first developed a 96-well assay system for rapid compound screening. Melanocytes were cultured in a 96-well plate in the presence of test compounds. Melanin content was determined by replacing the culture medium with PBS and measuring absorbance at 490 nm.
Following validation of their assay system, the present inventors performed a screen, treating Oca2-null cells with library compounds at concentrations of 5 and/or 1 μM. Each plate included untreated Oca2-null cells as negative controls and cells treated with bafilomycin A1 as positive controls. Compounds identified as potential hits were then re-screened to verify their ability to promote melanin synthesis in cells lacking functional Oca2 protein.

[7] = system: wildtype (WT) melanocytes; assay: melanin assay in wildtype melanocytes; type: cell-based; settings: FIG. 3; 72 hours
Method: as §2
Wildtype cells were plated in 24-well plates for 24 hours followed by dosing with the indicated compounds. DMSO was used as a vehicle control. Cells were harvested after 3 days and a melanin assay was performed as described above.
Selected compounds identified in the screen were tested using a traditional melanin assay in order to verify the findings of the screen. Following 3 (normal melanocytes) or 5 (mutant melanocytes) days of treatment, melanocytes were harvested in extraction buffer (50 mM Tris pH7.5, 2 mM EDTA, 150 mM NaCl) containing 1% Triton X-100 and protease inhibitors (Complete, Roche Indianapolis, Ind.) following two washes with 1× phosphate buffered saline (PBS). The lysate was centrifuged for 30 min at 13,000 rpm in a microfuge. The supernatant was removed and the protein concentration determined using a protein assay kit (BioRad, Richmond, Calif.). […] The optical density was determined at 490 nm. The value was normalized to protein concentration in the supernatant and expressed as a ratio of the melanin in the untreated cells.

[8] = system: melanoma cells; settings: reported previously; by upregulating expression of tyrosinase; cited from earlier work

In the case of `CCN(CC)CCCC(C)Nc1ccnc2cc(Cl)ccc12` (racemic) [chloroquine, (RS)—N′-(7-chloroquinolin-4-yl)-N,N-diethyl-pentane-1,4-diamine], the “pigmentation in normal melanocytes” value [1] is listed as “decrease pigmentation”, the “pigmentation (melanin level) in Oca3-null melanocytes” value [2] is listed as “increase pigmentation” and the “pigmentation (melanin level) in Oca2-null melanocytes” value [3] is listed as “increase pigmentation”.
With `CO/C1=C\C(C)=C\[C@@H](C)[C@@H](O)[C@@H](C)C/C(C)=C/C=C/[C@H](OC)[C@@H]([C@@H](C)[C@@H](O)[C@H](C)[C@@]2(O)C[C@@H](O)[C@H](C)[C@@H](C(C)C)O2)OC1=O` [Bafilomycin, bafilomycin A1] the “accompanying toxicity in Oca2-null melanocytes” value [4] was “much less accompanying toxicity”, the “toxicity to wildtype melanocytes” value [5] was “highly toxic” and the “pigmentation of Oca2-null cells in 96-well screen” value [6] was “reverses the pigmentation phenotype”. The “melanin content of Oca2-null (OCA2) melanocytes” value ([3]; FIG. 3, 72 hours) was “increased the melanin content”.
For `CC(C)Cn1c(=O)n(C)c(=O)c2[nH]cnc21` [IBMX, 3-isobutyl-1-methylxanthine], the “melanin content of wildtype (WT) melanocytes” value [7] was “effective in increasing the melanin content”.
For `CO[C@H]1C[C@@H]2CC[C@@H](C)[C@@](O)(O2)C(=O)C(=O)N2CCCC[C@H]2C(=O)O[C@H]([C@H](C)C[C@@H]2CC[C@@H](O)[C@H](OC)C2)CC(=O)[C@H](C)/C=C(\C)[C@@H](O)[C@@H](OC)C(=O)[C@H](C)C[C@H](C)/C=C/C=C/C=C/1C` [rapamycin, Rapamycin], the “pigmentation (melanin level) in Oca3-null melanocytes” value [2] is given as “increase pigmentation”, the “pigmentation in melanoma cells” value [8] is given as “increase pigmentation” and the “pigmentation (melanin level) in Oca2-null melanocytes” value [3] is given as “increase pigmentation”.
